Source: patent publication US6339045B1, “N-(unsubstituted or substituted)-4-substituted-6-(unsubstituted or substituted)phenoxy-2-pyridinecarboxamides or thiocarboxamides, processes for producing the same, and herbicides” (Kureha Kagaku Kogyo Kabushiki Kaisha, priority 1995, dated 2002)

How the values were obtained:
Experiment in all cases: Herbicidal effect by foliage and soil treatment
Assay type in all cases: in vivo
Conditions in all cases: 10 g ai/10a, evaluated after 14 days
[1] = tested on: black nightshade (Solanum nigrum)
In short: (§1)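 Post-emergence spray, cotyledon to bifoliate stage; Tween 20/water vehicle, fixed dose per area; greenhouse 19–25 °C; 14 d; visual growth rating vs untreated.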

[2] = tested on: wild chamomile (Matricaria chamomilla)
In short: as §1

[3] = tested on: sicklepod (Cassia obtusifolia)
In short: as §1

[4] = tested on: redroot pigweed (Amaranthus retroflexus)
In short: as §1

[5] = tested on: ivyleafspeedwell (Veronica hederaefolia)
In short: as §1

[6] = tested on: common chickweed (Stellaria media)
In short: as §1

[7] = tested on: field bindweed (Convolvulus arvensis)
In short: as §1

[8] = tested on: common blackjack (Bidens pilosa)
In short: as §1

[9] = tested on: cleavers (Galium aparine)
In short: as §1

[10] = tested on: kediock (Sinapis arvensis)
In short: as §1

[11] = tested on: velvetleaf (Abutilon theophrasti)
In short: as §1

Row | Structure (SMILES) | herbicidal activity rating, SN (Solanum nigrum) [1] | herbicidal activity rating, MC (Matricaria chamomilla) [2] | herbicidal activity rating, CO (Cassia obtusifolia) [3] | herbicidal activity rating, AR (Amaranthus retroflexus) [4] | herbicidal activity rating, VH (Veronica hederaefolia) [5] | herbicidal activity rating, SM (Stellaria media) [6] | herbicidal activity rating, CA (Convolvulus arvensis) [7] | herbicidal activity rating, BP (Bidens pilosa) [8] | herbicidal activity rating, GA (Galium aparine) [9] | herbicidal activity rating, SA (Sinapis arvensis) [10] | herbicidal activity rating, AT (Abutilon theophrasti) [11]
1 | COc1cc(Oc2cccc(SC(F)(F)F)c2)nc(C(=O)NC(C)C)c1 [Compound I-40, N-(i-propyl)-4-methoxy-6-{3-(trifluoromethylmercapto)phenoxy}-2-pyridine carboxamide] | 5 (percentage of weeds killed was not less than 80%) | 4 (percentage of weeds killed was not less than 60% and less than 80%) | 5 (percentage of weeds killed was not less than 80%) | 5 (percentage of weeds killed was not less than 80%) | 5 (percentage of weeds killed was not less than 80%) | 5 (percentage of weeds killed was not less than 80%) | 5 (percentage of weeds killed was not less than 80%) | 4 (percentage of weeds killed was not less than 60% and less than 80%) | 5 (percentage of weeds killed was not less than 80%) | 5 (percentage of weeds killed was not less than 80%) | 5 (percentage of weeds killed was not less than 80%)
2 | CNN(C)C(=O)c1cc(OC)cc(Oc2cccc(C(F)(F)F)c2)n1 [Compound I-202, N-methyl-N-methylamino-4-methoxy-6-{3-(trifluoromethyl)phenoxy}-2-pyridine carboxamide] | 5 (percentage of weeds killed was not less than 80%) | 3 (percentage of weeds killed was not less than 40% and less than 60%) | 5 (percentage of weeds killed was not less than 80%) | 5 (percentage of weeds killed was not less than 80%) | 5 (percentage of weeds killed was not less than 80%) | 5 (percentage of weeds killed was not less than 80%) | 4 (percentage of weeds killed was not less than 60% and less than 80%) | 4 (percentage of weeds killed was not less than 60% and less than 80%) | 5 (percentage of weeds killed was not less than 80%) | 5 (percentage of weeds killed was not less than 80%) | 4 (percentage of weeds killed was not less than 60% and less than 80%)
3 | CCCNC(=O)c1cccc(Oc2cccc(C(F)(F)F)c2)n1 [control (b)] | 5 (percentage of weeds killed was not less than 80%) | 1 (percentage of weeds killed was less than 20%) | 3 (percentage of weeds killed was not less than 40% and less than 60%) | 5 (percentage of weeds killed was not less than 80%) | 5 (percentage of weeds killed was not less than 80%) | 4 (percentage of weeds killed was not less than 60% and less than 80%) | 2 (percentage of weeds killed was not less than 20% and less than 40%) | 1 (percentage of weeds killed was less than 20%) | 5 (percentage of weeds killed was not less than 80%) | 5 (percentage of weeds killed was not less than 80%) | 3 (percentage of weeds killed was not less than 40% and less than 60%)
4 | COc1cc(Oc2cccc(C(F)(F)F)c2)nc(C(=O)Nc2ccc(F)cc2)c1 [Compound I-11] | 5 (percentage of weeds killed was not less than 80%) | 4 (percentage of weeds killed was not less than 60% and less than 80%) | 5 (percentage of weeds killed was not less than 80%) | 5 (percentage of weeds killed was not less than 80%) | 5 (percentage of weeds killed was not less than 80%) | 4 (percentage of weeds killed was not less than 60% and less than 80%) | 4 (percentage of weeds killed was not less than 60% and less than 80%) | 5 (percentage of weeds killed was not less than 80%) | 5 (percentage of weeds killed was not less than 80%) | 5 (percentage of weeds killed was not less than 80%) | 3 (percentage of weeds killed was not less than 40% and less than 60%)
5 | COc1cc(Oc2cccc(C(F)(F)F)c2)nc(C(=O)NCCS(C)(=O)=O)c1 [Compound I-63] | 5 (percentage of weeds killed was not less than 80%) | 4 (percentage of weeds killed was not less than 60% and less than 80%) | 5 (percentage of weeds killed was not less than 80%) | 5 (percentage of weeds killed was not less than 80%) | 5 (percentage of weeds killed was not less than 80%) | 5 (percentage of weeds killed was not less than 80%) | 5 (percentage of weeds killed was not less than 80%) | 4 (percentage of weeds killed was not less than 60% and less than 80%) | 5 (percentage of weeds killed was not less than 80%) | 5 (percentage of weeds killed was not less than 80%) | 4 (percentage of weeds killed was not less than 60% and less than 80%)
6 | CCNC(=S)c1cc(OC)cc(Oc2cccc(C(F)(F)F)c2)n1 [Compound I-44] | 5 (percentage of weeds killed was not less than 80%) | 3 (percentage of weeds killed was not less than 40% and less than 60%) | 5 (percentage of weeds killed was not less than 80%) | 5 (percentage of weeds killed was not less than 80%) | 5 (percentage of weeds killed was not less than 80%) | 5 (percentage of weeds killed was not less than 80%) | 4 (percentage of weeds killed was not less than 60% and less than 80%) | 4 (percentage of weeds killed was not less than 60% and less than 80%) | 5 (percentage of weeds killed was not less than 80%) | 5 (percentage of weeds killed was not less than 80%) | 4 (percentage of weeds killed was not less than 60% and less than 80%)
